Format in all cases: in vivo
For test [1], the system named is Spodoptera littoralis. The experiment in a line: B-1 insecticidal stomach-poison action on sprayed cotton plants. The settings on record: 12,5 ppm active ingredient, after 24 hours, L1 larvae on cotton plants. On the procedure: B-1. Insektizide Frassgift-Wirkung bei Spodoptera littoralis
Eingetopfe Baumwollpflanzen im 5-Blatt-Stadium werden mit einer acetonisch/wässrigen Versuchslösung besprüht, die 3, 12,5 oder 50 ppm der zu prüfenden Verbindung enthält.
Nach dem Antrocknen des Belags werden die Pflanzen mit ca. 30 Larven (L₁-Stadium) von Spodoptera littoralis besetzt. Pro Versuchsverbindung und pro Test-Spezies verwendet man zwei Pflanzen. Der Versuch wird bei ca. 24°C und 60 % relativer Luftfeuchtigkeit durchgeführt Auswertungen und Zwischenauswertungen auf moribunde Tiere, Wachstum und Larven und Frasschäden erfolgen nach 24 Stunden, 48 Stunden und 72 Stunden.

The test system of test [2] is OP-sensible Tetranychus urticae. Description: B-2 action against plant-damaging acarids on bean plants. The following applies: 1,6 ppm active ingredient, evaluation after seven days. The text has this:
B-2. Wirkung gegen pflanzenschädigende Akariden OP-sensible Tetranychus urticae
Die Primärblätter von Bohnenpflanzen (Phaseolus vulgaris) werden 16 Stunden vor dem Versuch mit einem durch T. urticae infestierten, aus einer Massenzucht stammenden Blattstück belegt. Die so mit allen Milben-Stadien infestierten Pflanzen werden nach Entfernung des Blattstücks mit einer Versuchslösung bis zur Tropfnässe besprüht, die wahlweise 0,4 ppm oder 1,6 ppm der zu prüfenden Verbindung enthält. Die Temperatur in der Gewächshauskabine beträgt ca. 25°C.
Nach sieben Tagen wird unter dem Binokular auf Prozentsatz mobiler Stadien (Adulte und Nymphen) und auf vorhandene Eier ausgewertet.

Test [3] relates to L₁-Larven von Lucilia sericata. The experiment in a line: B-3 action against L1 larvae in larval culture medium. The following applies: 96 h, reduced concentration of 100 ppm, after 4 days, read-out: Wirkung (Mortalitätsrate). On the procedure:
B-3. Wirkung gegen L₁-Larven von Lucilia sericata
1 ml einer wässrigen Suspension der zu prüfenden Aktivsubstanz werden so mit 3 ml eines speziellen Larvenzuchtmediums bei ca. 50°C vermischt, dass ein Homogenisat von wahlweise 250 ppm oder […] Wirkstoffgehalt entsteht. In jede Reagenzglas-Probe werden ca. 30 Lucilia-Larven (L₁) eingesetzt. Nach 4 Tagen wird die Mortalitätsrate bestimmt. Die Verbindungen aus den Herstellungsbeispielen zeigen bei 250 ppm eine Wirkung von 100 %, wobei die Verbindungen aus den Herstellungsbeispiele, wie z.B. E8, E6, E2, E14, E22, E28, E26, E30, E32, E34, E36 und E38, diese Wirkung auch noch bei der reduzierten Wirkstoffkonzentration von 100 ppm erzielten.

Test [4] concerns Aphis craccivora. The experiment in a line: B-6 contact action on infested pea seedlings. The following applies: Aphis craccivora, 72 h; 25 ppm, after 3 days; read-out: Abtötung. The text has this:
B-6. Kontaktwirkung auf Aphis craccivora
Erbsenkeimlinge, die mit sämtlichen Entwicklungsstadien der Laus infiziert sind, werden mit einer aus einem Emulsionskonzentrat hergestellten Wirkstofflösung besprüht, die wahlweise 50 ppm, 25 ppm oder 12,5 ppm Wirkstoff enthält. Nach 3 Tagen wird auf mehr als 80 % tote bzw. abgefallene Blattläuse ausgewertet. Nur bei dieser Wirkungshöhe wird ein Präparat als wirksam eingestuft.

Test [5] deals with Aedes aegypti. The experiment in a line: B-7 larvicidal action in water. The settings on record: 3,3 ppm, after one day. The protocol:
B-7. Larvizidwirkung gegen Aedes aegypti
Auf die Oberfläche von 150 ml Wasser, das sich in einem Behälter befindet, wird soviel einer 0,1 %igen acetonischen Lösung des Wirkstoffes pipettiert, dass Konzentrationen von wahlweise 10 ppm, 3,3 ppm und 1,6 ppm erhalten werden. Nach Verdunsten des Acetons wird der Behälter mit ca. 30-40 3 Tage alten Aedes-Larven beschickt. Nach 1, 2 und 5 Tagen wird die Mortalität geprüft.

As to `CCC1OC2(CCC1C)CC1CC(CC=C(C)C(OC(=O)Nc3ccccc3C(F)(F)F)C(C)C=CC=C3COC4C(O)C(C)=CC(C(=O)O1)C34O)O2` (stereo not drawn) [Beispiel E22, 13β-N-(2-Trifluorphenyl)-carbamoyloxy-milbemycin A₄], the Abtötung entry in test [1] and in test [2] was “vollständige Abtötung” each time. Also, in test [3], the mortality at 100 ppm came out at 100%. Moreover, the mortality at 25 ppm in test [4] amounted to 100%. Also, the “Abtötung sämtlicher Larven” value in test [5] was “vollständige Abtötung”.

Source of the values: patent EP0239528A1, “13-Beta-carbamoyloxy-milbemicyne derivatives for fighting harmful animal and plant parasites” (CIBA-GEIGY AG, priority 1986, dated 1987).
